The record followed here is article PMC6620293, “Anti-cancer activity of the novel 2-hydroxydiarylamide derivatives IMD-0354 and KRT1853 through suppression of cancer cell invasion, proliferation, and survival mediated by TMPRSS4” (Scientific Reports, 2019).

For the test, the target named is dipeptidyl peptidase 4 (DPP4) (Homo sapiens, UniProt P27487). In words: protease activity profiling assay (BPS Bioscience service), […]~[…] compound in […] DMSO. Format: biochemical.

Usually IC50 stands for the concentration needed to halve the response being measured. Read a low IC50 as greater potency.

Chain of dipeptidyl peptidase 4 (DPP4) (P27487 39-766): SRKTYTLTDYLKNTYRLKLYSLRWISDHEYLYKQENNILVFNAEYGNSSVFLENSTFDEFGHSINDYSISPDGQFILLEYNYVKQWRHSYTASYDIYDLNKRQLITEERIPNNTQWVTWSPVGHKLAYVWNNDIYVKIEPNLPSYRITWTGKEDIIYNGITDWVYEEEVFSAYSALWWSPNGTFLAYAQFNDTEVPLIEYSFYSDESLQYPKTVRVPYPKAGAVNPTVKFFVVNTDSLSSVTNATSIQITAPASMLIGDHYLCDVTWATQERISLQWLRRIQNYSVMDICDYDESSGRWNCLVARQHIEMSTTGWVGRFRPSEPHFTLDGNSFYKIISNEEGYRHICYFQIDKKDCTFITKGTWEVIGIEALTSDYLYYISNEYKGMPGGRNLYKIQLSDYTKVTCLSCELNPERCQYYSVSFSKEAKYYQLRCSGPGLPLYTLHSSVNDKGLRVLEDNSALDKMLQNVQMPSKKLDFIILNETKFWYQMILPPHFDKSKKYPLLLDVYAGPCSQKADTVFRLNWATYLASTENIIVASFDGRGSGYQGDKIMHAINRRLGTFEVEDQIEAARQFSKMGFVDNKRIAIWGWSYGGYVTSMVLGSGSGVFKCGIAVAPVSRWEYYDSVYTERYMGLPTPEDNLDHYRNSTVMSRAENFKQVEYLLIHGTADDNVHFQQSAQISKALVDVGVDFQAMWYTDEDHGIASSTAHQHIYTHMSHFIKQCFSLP

As for `O=C(Nc1cc(C(F)(F)F)cc(C(F)(F)F)c1)c1cc(Cl)ccc1O` [IMD-0354, N-(3,5-Bis-trifluoromethylphenyl)-5-chloro-2-hydroxybenzamide], 9.2 µM corresponded to half-maximal inhibition (IC50).
